From US20230130766A1 (SALK INSTITUTE FOR BIOLOGICAL STUDIES, priority 2020, published 2023)

Molecular target: T1, ULK1 (Homo sapiens, UniProt O75385)
T1 sequence (O75385 1-1050): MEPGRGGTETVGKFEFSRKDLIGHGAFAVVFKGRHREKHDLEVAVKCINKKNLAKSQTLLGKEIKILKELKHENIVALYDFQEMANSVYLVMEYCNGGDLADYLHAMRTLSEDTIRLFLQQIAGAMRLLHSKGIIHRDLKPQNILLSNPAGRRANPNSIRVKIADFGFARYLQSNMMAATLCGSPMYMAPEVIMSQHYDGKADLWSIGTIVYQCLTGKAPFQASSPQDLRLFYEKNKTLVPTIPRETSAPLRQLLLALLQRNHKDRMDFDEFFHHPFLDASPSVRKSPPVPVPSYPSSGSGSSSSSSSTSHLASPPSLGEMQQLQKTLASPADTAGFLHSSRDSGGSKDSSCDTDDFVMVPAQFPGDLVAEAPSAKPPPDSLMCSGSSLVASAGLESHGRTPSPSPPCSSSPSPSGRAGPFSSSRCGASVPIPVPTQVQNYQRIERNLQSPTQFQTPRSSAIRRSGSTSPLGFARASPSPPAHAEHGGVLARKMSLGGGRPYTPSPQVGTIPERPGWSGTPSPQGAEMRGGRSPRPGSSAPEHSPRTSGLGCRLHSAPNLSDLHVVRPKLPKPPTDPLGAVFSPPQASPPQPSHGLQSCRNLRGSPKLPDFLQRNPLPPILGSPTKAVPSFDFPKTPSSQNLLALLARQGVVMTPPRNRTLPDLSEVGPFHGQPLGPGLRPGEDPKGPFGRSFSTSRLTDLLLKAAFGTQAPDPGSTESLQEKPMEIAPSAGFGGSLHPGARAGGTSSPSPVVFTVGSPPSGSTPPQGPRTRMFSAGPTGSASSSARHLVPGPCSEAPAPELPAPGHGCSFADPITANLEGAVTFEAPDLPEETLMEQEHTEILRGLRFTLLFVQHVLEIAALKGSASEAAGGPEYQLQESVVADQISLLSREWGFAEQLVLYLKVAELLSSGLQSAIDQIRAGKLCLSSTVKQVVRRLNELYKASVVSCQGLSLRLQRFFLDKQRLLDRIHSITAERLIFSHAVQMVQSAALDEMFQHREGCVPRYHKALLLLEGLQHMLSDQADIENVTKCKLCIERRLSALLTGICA
Assay: ULK1 inhibition assay
Assay type: biochemical
Conditions: * = tested as a mixture of regioisomers

SMILES	IC50 [nM]
COc1cc(Nc2ncc(Br)c(Oc3ccccc3C(=O)N3CCCC3)n2)cc(OC)c1OC [Compound 277]	< 200
FC(F)(F)c1cnc(Nc2cccc3ncccc23)nc1NC1CC1 [Compound 278]	> 2000
COc1cc(Nc2ncc(Br)c(Oc3ccccc3NC(=O)C3CC3)n2)cc(OC)c1OC [Compound 281]	< 200
COc1cc(Nc2ncc(Br)c(Oc3ccccc3CN(C)C)n2)cc(OC)c1OC [Compound 283]	> 2000
O=C1CCc2cc(Nc3ncc(C(=O)O)c(NC4CC4)n3)ccc2N1 [Compound 286]	> 2000
N#Cc1cnc(NC2CC2)nc1Nc1ccc2c(c1)CCC(=O)N2 [Compound 287]	> 2000
COc1cc(Nc2ncc(Br)c(Oc3ccccc3-c3nc(C)co3)n2)cc(OC)c1OC [Compound 290]	> 2000
O=[N+]([O-])c1cnc(NC2CC2)nc1NC1CC1 [Compound 291b]	> 2000
COc1cc(Nc2ncc(Br)c(Nc3ccccc3)n2)cc(OC)c1OC [Compound 293]	< 200
COC(=O)Nc1ccccc1Oc1nc(Nc2cc(OC)c(OC)c(OC)c2)ncc1Br [Compound 296]	< 200
FC(F)(F)c1cnc(Nc2ccc3nc[nH]c3c2)nc1Nc1cc(C2CCC2)[nH]n1 [Compound 297]	< 200
COc1cc(Nc2ncc(Br)c(Oc3ccccc3C(F)(F)F)n2)cc(OC)c1OC [Compound 299]	< 200
O=C1CCc2cc(Nc3ncc(C(F)(F)F)c(Oc4ccccc4)n3)ccc2N1 [Compound 300a]	> 2000
O=C1CCc2cc(Nc3nc(Oc4ccccc4)ncc3C(F)(F)F)ccc2N1 [Compound 300b]	> 2000
O=C1CCCc2cc(Nc3ncc(C(F)(F)F)c(NC4CC4)n3)ccc21 [Compound 301]	< 200
COc1cc(Nc2ncc(Br)c(Nc3ccccc3CO)n2)cc(OC)c1OC [Compound 303]	< 200
Nc1ccc(Nc2ncc(C(F)(F)F)c(NC3CC3)n2)cc1 [Compound 304a]	< 200
FC(F)(F)c1cnc(Nc2ccc(Nc3ncc(C(F)(F)F)c(NC4CC4)n3)cc2)nc1NC1CC1 [Compound 304b]	> 2000
FC(F)(F)c1cnc(Nc2ccc3c(c2)CCNC3)nc1NC1CC1 [Compound 309]	< 200
CC(C)(C)OC(=O)NCCCNc1nc(Nc2ccc3c(c2)CCC(=O)N3)ncc1C(F)(F)F [Compound 310]	< 200
O=C(C1CC1)N(C(=O)C1CC1)c1ccc(Nc2ncc(C(F)(F)F)c(NC3CC3)n2)cc1 [Compound 311]	< 200

SMILES	IC50 [nM]
O=C(Nc1ccc(Nc2ncc(C(F)(F)F)c(NC3CC3)n2)cc1)C1CC1 [Compound 312]	< 200
NCCCNc1nc(Nc2ccc3c(c2)CCC(=O)N3)ncc1C(F)(F)F [Compound 313]	< 200
O=C1NC(=O)c2cc(Nc3ncc(C(F)(F)F)c(NC4CC4)n3)ccc21 [Compound 314]	< 200
CNC(=O)CCOc1nc(Nc2cc(OC)c(OC)c(OC)c2)ncc1Br [Compound 316]	< 200
COc1cc(Nc2ncc(Br)c(Nc3ccccc3O)n2)cc(OC)c1OC [Compound 317]	< 200
CNC(=O)c1ccc(OC)cc1Oc1ncc(Br)c(Nc2cc(OC)c(OC)c(OC)c2)n1 [Compound 318b]	> 2000
COc1cc(Nc2ncc(Br)c(Oc3ccccc3NC(=O)C(C)(C)C)n2)cc(OC)c1OC [Compound 320]	> 2000
CC(=O)Nc1ccccc1Oc1nc(Nc2ccc3c(c2)OCO3)ncc1Br [Compound 321a]	> 2000
Nc1ccccc1Oc1nc(Nc2ccc3c(c2)OCO3)ncc1Br [Compound 321b]	< 200
COc1cc(Nc2ncc(Br)c(Oc3ccccc3NC(=O)C(F)(F)F)n2)cc(OC)c1OC [Compound 323]	< 200
COc1cc(Nc2ncc(Br)c(Oc3cccc4cccnc34)n2)cc(OC)c1OC [Compound 324a]	> 2000
CNC(=O)c1ccccc1Oc1nc(Nc2ccc3c(c2)CCC(=O)N3)ncc1Br [Compound 325]	> 2000
Oc1nc(Nc2cnc3[nH]ccc3c2)ncc1C(F)(F)F [Compound 326]	> 2000
CNC(=O)Cc1ccccc1Oc1nc(Nc2cc(OC)c(OC)c(OC)c2)ncc1Br [Compound 327]	> 2000
COc1cc(Nc2ncc(Br)c(Oc3ccccc3CNC(C)=O)n2)cc(OC)c1OC [Compound 328]	> 2000
COc1cc(Nc2ncc(Br)c(Oc3cccc4cc[nH]c34)n2)cc(OC)c1OC [Compound 329a]	> 2000
COc1cc(Nc2nc(Oc3cccc4cc[nH]c34)ncc2Br)cc(OC)c1OC [Compound 329b]	> 2000
COc1cc(Nc2ncc(Br)c(Oc3cccc4c3CCCC4)n2)cc(OC)c1OC [Compound 330a]	> 2000
COc1cc(Nc2nc(Oc3cccc4c3CCCC4)ncc2Br)cc(OC)c1OC [Compound 330b]	> 2000
COc1cc(Nc2ncc(Br)c(-n3nnc4ccccc43)n2)cc(OC)c1OC [Compound 331a]	> 2000
COc1cc(Nc2nc(-n3nnc4ccccc43)ncc2Br)cc(OC)c1OC [Compound 331b]	200 to 2000

SMILES	IC50 [nM]
O=C(C1CC1)N1CCc2cc(Nc3ncc(C(F)(F)F)c(NC4CC4)n3)ccc2C1 [Compound 332]	< 200
O=C1CCc2cc(Nc3ncc(C(F)(F)F)c(NCCCNC(=O)C4CC4)n3)ccc2N1 [Compound 333]	< 200
O=c1[nH][nH]c(=O)c2cc(Nc3ncc(C(F)(F)F)c(NC4CC4)n3)ccc12 [Compound 334]	< 200
COc1cc(Nc2ncc(Br)c(Oc3cccc4c3N(C(C)=O)CCC4)n2)cc(OC)c1OC [Compound 335a]	> 2000
COc1cc(Nc2nc(Oc3cccc4c3N(C(C)=O)CCC4)ncc2Br)cc(OC)c1OC [Compound 335b]	< 200
COc1cc(Nc2ncc(Br)c(Oc3ccccc3O)n2)cc(OC)c1OC [Compound 336]	> 2000
CNC(=O)c1ccccc1COc1nc(Nc2cc(OC)c(OC)c(OC)c2)ncc1Br [Compound 338]	> 2000
CCN1CCOc2cc(Nc3nc(Nc4ccc5c(c4)CCC(=O)N5)ncc3Br)cnc21 [Compound 343]	< 200
CCN1CCOc2cc(Nc3ncc(C(F)(F)F)c(NC4CC4)n3)cnc21 [Compound 344]	< 200
COc1cc(Nc2ncc(Br)c(Oc3ccccc3NS(C)(=O)=O)n2)cc(OC)c1OC [Compound 345]	> 2000
COc1cc(Nc2ncc(C(F)(F)F)c(Oc3ccccc3N)n2)cc(OC)c1OC [Compound 346]	< 200
O=C1CCc2cc(Nc3ncc(C(F)(F)F)c(Nc4ccccc4CO)n3)ccc2N1 [Compound 347]	< 200
COc1cc(Nc2ncc(Cl)c(Nc3ccccc3CO)n2)cc(OC)c1OC [Compound 348]	> 2000
CC(=O)NNc1nc(Nc2ccc3c(c2)CCC(=O)N3)ncc1C(F)(F)F [Compound 350]	> 2000
COc1cc(Nc2ncc(Br)c(Oc3cccc4ccncc34)n2)cc(OC)c1OC [Compound 351]	> 2000
COc1cc(Nc2ncc(Br)c(Oc3cccc4[nH]nnc34)n2)cc(OC)c1OC [Compound 352]	> 2000
OCc1ccccc1Nc1nc(Nc2cc(F)c(F)c(F)c2)ncc1Br [Compound 353]	> 2000
COc1cc(Nc2ncc(Br)c(Oc3cccc(O)c3[N+](=O)[O-])n2)cc(OC)c1OC [Compound 354]	> 2000
COc1cc(Nc2ncc(Br)c(Oc3ccccc3C3=NC(C)(C)CO3)n2)cc(OC)c1OC [Compound 355]	> 2000
